We go through one compound from patent publication US5656603A (Loyola University of Chicago, priority 1995, dated 1997).

Each structure is given as a SMILES string.

This assay concerns the target T1, angiotensin converting enzyme (EC 3.4.15.1) (Bos taurus, UniProt P12820).
T1 construct: Unless otherwise indicated, the source of each enzyme activity was a detergent extract of bovine lung; from tissue; host or cells: detergent extract of bovine lung
T1 sequence (P12820 29-1306): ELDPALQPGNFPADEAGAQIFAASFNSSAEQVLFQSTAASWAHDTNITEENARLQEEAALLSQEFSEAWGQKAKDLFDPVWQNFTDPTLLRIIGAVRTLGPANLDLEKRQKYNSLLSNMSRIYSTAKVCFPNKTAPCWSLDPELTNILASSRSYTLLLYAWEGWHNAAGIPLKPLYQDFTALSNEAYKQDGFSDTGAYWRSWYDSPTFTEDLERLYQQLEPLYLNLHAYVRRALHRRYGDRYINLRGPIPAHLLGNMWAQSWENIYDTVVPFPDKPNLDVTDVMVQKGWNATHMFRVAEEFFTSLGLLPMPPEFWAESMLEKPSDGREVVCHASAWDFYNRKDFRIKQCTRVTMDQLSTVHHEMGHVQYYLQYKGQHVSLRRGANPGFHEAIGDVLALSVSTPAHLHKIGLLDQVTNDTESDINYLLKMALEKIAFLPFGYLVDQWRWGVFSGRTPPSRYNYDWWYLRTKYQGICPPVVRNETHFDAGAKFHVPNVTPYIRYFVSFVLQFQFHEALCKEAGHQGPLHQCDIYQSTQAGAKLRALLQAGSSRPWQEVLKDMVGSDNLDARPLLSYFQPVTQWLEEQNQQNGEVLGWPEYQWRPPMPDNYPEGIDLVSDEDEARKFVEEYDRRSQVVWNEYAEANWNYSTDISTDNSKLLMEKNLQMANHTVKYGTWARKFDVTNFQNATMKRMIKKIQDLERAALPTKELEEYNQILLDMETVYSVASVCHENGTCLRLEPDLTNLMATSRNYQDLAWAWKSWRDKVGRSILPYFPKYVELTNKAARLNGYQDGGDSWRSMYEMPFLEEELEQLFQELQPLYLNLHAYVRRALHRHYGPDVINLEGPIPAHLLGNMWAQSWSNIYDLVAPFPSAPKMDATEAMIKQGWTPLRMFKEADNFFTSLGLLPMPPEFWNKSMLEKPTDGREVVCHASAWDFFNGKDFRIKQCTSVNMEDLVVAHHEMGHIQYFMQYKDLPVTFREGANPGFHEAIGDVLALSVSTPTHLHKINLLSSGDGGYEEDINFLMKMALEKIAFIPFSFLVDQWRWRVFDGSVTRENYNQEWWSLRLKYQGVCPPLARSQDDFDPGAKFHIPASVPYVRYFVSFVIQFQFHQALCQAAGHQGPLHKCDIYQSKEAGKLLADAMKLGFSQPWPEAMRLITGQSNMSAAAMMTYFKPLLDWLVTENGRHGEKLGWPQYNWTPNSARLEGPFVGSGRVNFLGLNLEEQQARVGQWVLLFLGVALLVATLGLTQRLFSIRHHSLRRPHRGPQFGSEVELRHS
The experiment in a line: Specificity of apstatin: angiotensin converting enzyme. The note with it: detergent extract of bovine lung; Hip-His-Leu, pH 6.5, HPLC-1. The class given is biochemical. Here is the method: Specificity of Apstatin--Apstatin was assayed for its ability to inhibit several other peptidases. […] Unless otherwise indicated, the source of each enzyme activity was a detergent extract of bovine lung prepared as described in (12-13). Activities were determined by a modification of the fluorescent assay described above (indicated by "FLUO") or by HPLC separation and quantitation of reaction products using the method described in (12) (method "HPLC-1") or the method described below (method "HPLC-2"). […]

What is called IC50 is the concentration that gives 50% inhibition. A lower IC50 goes with inhibition by little substance. In the case of `C[C@H](NC(=O)[C@@H]1CCCN1C(=O)[C@@H]1CCCN1C(=O)[C@@H](O)[C@H](N)Cc1ccccc1)C(N)=O` [apstatin, N-[(2S, 3R)-3-amino-2-hydroxy-4-phenylbutanoyl]-L-prolyl-L-prolyl-Lalaninamide], the IC50 is more than 800 µM.
